Measurements published in US20120295247A1, “PORCINE SEMINAL MATERIAL COMPOSITION FOR ARTIFICIAL INSEMINATION OF SOWS” (GENES DIFFUSION, priority 2009, published 2012).

Tested on: spermatozoa present in free semen
Source text: In order to obtain efficient fertilization, more than 50% of the spermatozoa have to be […] (i.e. having an individual displacement velocity of more than 20 micrometers per second).
Gedil® is a diluting agent consisting of a biological medium favorable to preservation of spermatozoa.

[Ba+2].[Cl-].[Cl-] [BaCl2, barium chloride]
motility of the spermatozoa (BaCl2 at 5 or 10% on free semen, after two days): significant reduction
effect on essential properties (such as the motility) of porcine spermatozoa (products present in the capsules): alter the essential properties
toxicity (or stress) for spermatozoa (spermatozoa diluted in media other than Gedil, addition of BaCl2): toxicity
